Reference: patent US12139520B2 (priority 2020, dated 2024)
Numbered stars: 1 amine (or outer) side, 2 acyl side, 3 side chain; on linkers, the order of the positions; unused ones are H or OH. Bridge positions count the residues as written; N and C are the ends. Square brackets hold non-standard residues; d marks the D form. Peptide text beside a SMILES is read from it. * marks the point of attachment. C20 diacid = O=C(O)CCCCCCCCCCCCCCCCCCC(=O)*; γGlu = O=C(O)[C@H](CCC(=O)[*:2])N[*:1]; Hyp = O=C(O)[C@@H]1C[C@@H](O)CN1

Target: T1, hAMY3 receptor (Homo sapiens, UniProt O60896+P30988)
T1 sequence (P30988 25-474): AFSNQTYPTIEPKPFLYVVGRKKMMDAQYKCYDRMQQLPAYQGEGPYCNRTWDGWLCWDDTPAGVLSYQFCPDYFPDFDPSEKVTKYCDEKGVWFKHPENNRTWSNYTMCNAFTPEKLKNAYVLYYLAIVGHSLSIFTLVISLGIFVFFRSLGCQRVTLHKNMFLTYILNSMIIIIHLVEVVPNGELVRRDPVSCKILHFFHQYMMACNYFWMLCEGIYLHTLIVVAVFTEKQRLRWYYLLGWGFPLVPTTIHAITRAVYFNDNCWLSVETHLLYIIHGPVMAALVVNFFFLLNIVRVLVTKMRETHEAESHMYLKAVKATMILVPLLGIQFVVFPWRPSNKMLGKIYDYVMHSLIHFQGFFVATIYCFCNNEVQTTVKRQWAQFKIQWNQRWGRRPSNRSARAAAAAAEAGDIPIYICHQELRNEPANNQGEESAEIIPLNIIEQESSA
T1 sequence (O60896 24-148 partner): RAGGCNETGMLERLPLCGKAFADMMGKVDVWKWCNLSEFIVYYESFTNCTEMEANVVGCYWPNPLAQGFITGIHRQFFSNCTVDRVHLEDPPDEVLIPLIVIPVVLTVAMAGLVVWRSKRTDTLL
Assay: cAMP assay for in vitro receptor activation, hAMY3-R
Format: cell-based
Conditions: cAMP assay, hAMY3 receptor; read-out: hAMY3R EC50
Summary of the method: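 Accumulated cAMP was detected by time-resolved FRET one hour after reagent addition. Beforehand, hAMY3-R-overexpressing monoclonal cells (2000/well, DPBS, 0.05% casein, 0.5 mM IBMX) received graded doses of compound for 30 min at room temperature; human amylin served as positive control.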

| SMILES | EC50 |
| --- | --- |
| CC[C@H](C)[C@H](NC(=O)[C@H](CCC(N)=O)NC(=O)[C@H](Cc1c[nH]cn1)NC(=O)[C@H](C)NC(=O)[C@H](CC(C)C)NC(=O)[C@H](CCCNC(=N)N)NC(=O)[C@H](CCC(N)=O)NC(=O)[C@@H](NC(=O)[C@@H](NC(=O)[C@@H]1CSSC[C@H](NC(=O)[C@H](CCCCN)NC(=O)CC[C@H](NC(=O)CCCCCCCCCCCCCCCCCCC(=O)O)C(=O)O)C(=O)N[C@@H](CC(N)=O)C(=O)N[C@@H]([C@@H](C)O)C(=O)N[C@@H](C)C(=O)N[C@@H]([C@@H](C)O)C(=O)N1)[C@@H](C)O)C(C)C)C(=O)N[C@@H](Cc1ccc(O)cc1)C(=O)N[C@@H](CCC(N)=O)C(=O)N[C@@H](Cc1ccccc1)C(=O)N[C@H](C(=O)N[C@@H](CC(N)=O)C(=O)N[C@@H](CCCCN)C(=O)N[C@@H](CC(=O)O)C(=O)N[C@@H](CCCCN)C(=O)N[C@@H](CC(=O)O)C(=O)N[C@@H](CC(N)=O)C(=O)N[C@H](C(=O)N[C@@H](C)C(=O)N1CCC[C@H]1C(=O)N1CCC[C@H]1C(=O)N[C@H](C(=O)N[C@@H](CC(N)=O)C(=O)N[C@H](C(=O)NCC(=O)N[C@@H](CO)C(=O)N[C@@H](CC(N)=O)C(=O)NCC(=O)N1C[C@H](O)C[C@H]1C(N)=O)C(C)C)[C@@H](C)O)C(C)C)[C@@H](C)O [compound 82] ({C20 diacid-γGlu}-KCNTATCTVQRLAHQIYQFTNKDKDNVAPPTNVGSNG[Hyp]-NH2; disulfide 2-7) | 0.015 nM |
| CC[C@H](C)[C@H](NC(=O)[C@H](CCC(N)=O)NC(=O)[C@H](Cc1c[nH]cn1)NC(=O)[C@H](C)NC(=O)[C@H](CC(C)C)NC(=O)[C@H](CCCNC(=N)N)NC(=O)[C@H](CCC(N)=O)NC(=O)[C@@H](NC(=O)[C@@H](NC(=O)[C@@H]1CSSC[C@H](NC(=O)[C@H](CCCCN)NC(=O)CC[C@H](NC(=O)CCCCCCCCCCCCCCCCCCC(=O)O)C(=O)O)C(=O)N[C@@H](CC(N)=O)C(=O)N[C@@H]([C@@H](C)O)C(=O)N[C@@H](C)C(=O)N[C@@H]([C@@H](C)O)C(=O)N1)[C@@H](C)O)C(C)C)C(=O)N[C@@H](Cc1ccc(O)cc1)C(=O)N[C@@H](CCC(N)=O)C(=O)N[C@@H](Cc1ccccc1)C(=O)N[C@@H](C)C(=O)N[C@@H](CC(=O)O)C(=O)N[C@@H](CCCCN)C(=O)N[C@@H](CC(=O)O)C(=O)N[C@@H](CCCCN)C(=O)N[C@@H](CC(=O)O)C(=O)N[C@@H](CC(N)=O)C(=O)N[C@H](C(=O)N[C@@H](C)C(=O)N1CCC[C@H]1C(=O)N1CCC[C@H]1C(=O)N[C@H](C(=O)N[C@@H](CC(N)=O)C(=O)N[C@H](C(=O)NCC(=O)N[C@@H](CO)C(=O)N[C@@H](CC(N)=O)C(=O)NCC(=O)N1C[C@H](O)C[C@H]1C(N)=O)C(C)C)[C@@H](C)O)C(C)C [compound 83] ({C20 diacid-γGlu}-KCNTATCTVQRLAHQIYQFADKDKDNVAPPTNVGSNG[Hyp]-NH2; disulfide 2-7) | 0.015 nM |
| CC[C@H](C)[C@H](NC(=O)[C@H](CCC(N)=O)NC(=O)[C@H](Cc1c[nH]cn1)NC(=O)[C@H](C)NC(=O)[C@H](CC(C)C)NC(=O)[C@H](CCCNC(=N)N)NC(=O)[C@H](CCC(N)=O)NC(=O)[C@@H](NC(=O)[C@@H](NC(=O)[C@@H]1CSSC[C@H](NC(=O)[C@H](CCCCN)NC(=O)CC[C@H](NC(=O)CCCCCCCCCCCCCCCCCCC(=O)O)C(=O)O)C(=O)N[C@@H](CC(N)=O)C(=O)N[C@@H]([C@@H](C)O)C(=O)N[C@@H](C)C(=O)N[C@@H]([C@@H](C)O)C(=O)N1)[C@@H](C)O)C(C)C)C(=O)N[C@@H](Cc1ccc(O)cc1)C(=O)N[C@@H](CCC(N)=O)C(=O)N[C@@H](Cc1ccccc1)C(=O)N[C@H](C(=O)N[C@@H](CC(=O)O)C(=O)N[C@@H](CCCCN)C(=O)N[C@@H](CC(N)=O)C(=O)N[C@@H](CCCCN)C(=O)N[C@@H](CC(=O)O)C(=O)N[C@@H](CC(N)=O)C(=O)N[C@H](C(=O)N[C@@H](C)C(=O)N1CCC[C@H]1C(=O)N1CCC[C@H]1C(=O)N[C@H](C(=O)N[C@@H](CC(N)=O)C(=O)N[C@H](C(=O)NCC(=O)N[C@@H](CO)C(=O)N[C@@H](CC(N)=O)C(=O)NCC(=O)N1C[C@H](O)C[C@H]1C(N)=O)C(C)C)[C@@H](C)O)C(C)C)[C@@H](C)O [compound 91] ({C20 diacid-γGlu}-KCNTATCTVQRLAHQIYQFTDKNKDNVAPPTNVGSNG[Hyp]-NH2; disulfide 2-7) | 0.016 nM |
| CC[C@H](C)[C@H](NC(=O)[C@H](CCC(N)=O)NC(=O)[C@H](Cc1c[nH]cn1)NC(=O)[C@H](C)NC(=O)[C@H](CC(C)C)NC(=O)[C@H](CCCNC(=N)N)NC(=O)[C@H](CCC(N)=O)NC(=O)[C@@H](NC(=O)[C@@H](NC(=O)[C@@H]1CSSC[C@H](NC(=O)[C@H](CCCCN)NC(=O)CC[C@H](NC(=O)CCCCCCCCCCCCCCCCCCC(=O)O)C(=O)O)C(=O)N[C@@H](CC(N)=O)C(=O)N[C@@H]([C@@H](C)O)C(=O)N[C@@H](C)C(=O)N[C@@H]([C@@H](C)O)C(=O)N1)[C@@H](C)O)C(C)C)C(=O)N[C@@H](C)C(=O)N[C@@H](CCC(N)=O)C(=O)N[C@@H](Cc1ccccc1)C(=O)N[C@H](C(=O)N[C@@H](CC(=O)O)C(=O)N[C@@H](CCCCN)C(=O)N[C@@H](CC(=O)O)C(=O)N[C@@H](CCCCN)C(=O)N[C@@H](CC(=O)O)C(=O)N1CCC[C@H]1C(=O)N[C@H](C(=O)N[C@@H](C)C(=O)N1CCC[C@H]1C(=O)N1CCC[C@H]1C(=O)N[C@H](C(=O)N[C@@H](CC(N)=O)C(=O)N[C@H](C(=O)NCC(=O)N[C@@H](CO)C(=O)N[C@@H](CC(N)=O)C(=O)NCC(=O)N1C[C@H](O)C[C@H]1C(N)=O)C(C)C)[C@@H](C)O)C(C)C)[C@@H](C)O [compound 92] ({C20 diacid-γGlu}-KCNTATCTVQRLAHQIAQFTDKDKDPVAPPTNVGSNG[Hyp]-NH2; disulfide 2-7) | 0.016 nM |
| CC[C@H](C)[C@H](NC(=O)[C@H](CCC(N)=O)NC(=O)[C@H](Cc1c[nH]cn1)NC(=O)[C@H](C)NC(=O)[C@H](CC(C)C)NC(=O)[C@H](CCCNC(=N)N)NC(=O)[C@H](CCC(N)=O)NC(=O)[C@@H](NC(=O)[C@@H](NC(=O)[C@@H]1CSSC[C@H](NC(=O)[C@H](CCCCN)NC(=O)CC[C@H](NC(=O)CCCCCCCCCCCCCCCCCCC(=O)O)C(=O)O)C(=O)N[C@@H](CC(N)=O)C(=O)N[C@@H]([C@@H](C)O)C(=O)N[C@@H](C)C(=O)N[C@@H]([C@@H](C)O)C(=O)N1)[C@@H](C)O)C(C)C)C(=O)N[C@@H](Cc1ccc(O)cc1)C(=O)N[C@@H](CCC(N)=O)C(=O)N[C@@H](Cc1ccccc1)C(=O)N[C@H](C(=O)N[C@@H](CC(=O)O)C(=O)N[C@@H](CCCCN)C(=O)N[C@@H](CC(=O)O)C(=O)N[C@@H](CCCCN)C(=O)N[C@@H](CC(=O)O)C(=O)N[C@@H](CC(N)=O)C(=O)N[C@H](C(=O)N[C@@H](C)C(=O)N1CCC[C@H]1C(=O)N[C@@H](CCCNC(=N)N)C(=O)N[C@H](C(=O)N[C@@H](CCCCN)C(=O)N[C@H](C(=O)NCC(=O)N[C@@H](CO)C(=O)N[C@@H](CC(N)=O)C(=O)NCC(=O)N1C[C@H](O)C[C@H]1C(N)=O)C(C)C)[C@@H](C)O)C(C)C)[C@@H](C)O [compound 99] ({C20 diacid-γGlu}-KCNTATCTVQRLAHQIYQFTDKDKDNVAPRTKVGSNG[Hyp]-NH2; disulfide 2-7) | 0.017 nM |
| CC[C@H](C)[C@H](NC(=O)[C@H](CCC(N)=O)NC(=O)[C@H](Cc1c[nH]cn1)NC(=O)[C@H](C)NC(=O)[C@H](CC(C)C)NC(=O)[C@H](CCCNC(=N)N)NC(=O)[C@H](C)NC(=O)[C@@H](NC(=O)[C@@H](NC(=O)[C@@H]1CSSC[C@H](NC(=O)[C@H](CCCCN)NC(=O)CC[C@H](NC(=O)CCCCCCCCCCCCCCCCCCC(=O)O)C(=O)O)C(=O)N[C@@H](CC(N)=O)C(=O)N[C@@H]([C@@H](C)O)C(=O)N[C@@H](C)C(=O)N[C@@H]([C@@H](C)O)C(=O)N1)[C@@H](C)O)C(C)C)C(=O)N[C@@H](C)C(=O)N[C@@H](CCC(N)=O)C(=O)N[C@@H](Cc1ccccc1)C(=O)N[C@H](C(=O)N[C@@H](CC(=O)O)C(=O)N[C@@H](CCCCN)C(=O)N[C@@H](CC(=O)O)C(=O)N[C@@H](CCCCN)C(=O)N[C@@H](CC(=O)O)C(=O)N[C@@H](CC(N)=O)C(=O)N[C@H](C(=O)N[C@@H](C)C(=O)N1CCC[C@H]1C(=O)N1CCC[C@H]1C(=O)N[C@H](C(=O)N[C@@H](CC(N)=O)C(=O)N[C@H](C(=O)NCC(=O)N[C@@H](CO)C(=O)N[C@@H](CC(N)=O)C(=O)NCC(=O)N1C[C@H](O)C[C@H]1C(N)=O)C(C)C)[C@@H](C)O)C(C)C)[C@@H](C)O [compound 107] ({C20 diacid-γGlu}-KCNTATCTVARLAHQIAQFTDKDKDNVAPPTNVGSNG[Hyp]-NH2; disulfide 2-7) | 0.019 nM |
